Marks after values point to notes of the source that are not given here.
Key:
[1] = system: NASH patients with stage 1-3 fibrosis; assay: Phase 1b study in NASH patients, 4-week daily oral dosing: pharmacodynamic signals; type: in vivo, human; conditions: for Mean Non-HDL to Baseline / Mean TG to Baseline / Median Non-HDL to Baseline / Median TG to Baseline: day 28 after dosing
Experimental: (§1) A total of 63 patients completed the study with 21 patients per dose group (completion of MRI-PDFF measurement). 25HC3 S sodium was orally administered daily at 50 mg, 150 mg, or 600 mg (300 mg BID). […] Subjects provided written informed consent to participate in the study • 2. Males or females subjects 18 years or older, at the time of signing informed consent • 3. BMI 20-45 kg/m^2 • 4. […] Value of Fibroscan® ≥7 kPa • OR • b. MRE ≥2.75 kPa • *Clinical diagnosis of NASH was defined in this clinical trial as the existence of one or more of the following risk factors for NASH, namely: • a. Type 2 diabetes or elevated fasting blood sugar • b. Abdominal obesity • c. Elevated lipid levels, especially elevated levels of serum triglycerides • d. Hypertension, or • e. Low levels of HDL cholesterol • 5. For serum transaminases, ALT concentration for all patients at the time of screening was >1 and <5 times upper limit of normal (ULN) of the central lab in the absence of another cause of liver disease. If a patient had lab records in the past 6 months, ALT concentrations were <20 U/L female and <30 U/L male. AST concentration for all patients at the time of screening was <5× ULN • 6. […] Platelet counts ≥120,000/mm^3 • 8. Female subjects were eligible for the study if they met the following criteria: • Are not pregnant or nursing • Women of child-bearing potential (defined as females who are not surgically sterile or who are not over the age of 52 and amenorrheic for at least 12 months) must utilize appropriate birth control throughout the study duration. Acceptable methods that may be used are abstinence, birth control pills (“The Pill”) or patch, diaphragm, IUD (coil), vaginal ring, condom, surgical sterilization or progestin implant or injection, or sexual activity limited to a sterile (e.g., vasectomized) male partner • 9. Male participants agreed to consistently and correctly use a condom in combination with one of the above methods of birth control from enrollment to 30 days after the last dose of study medication • 10. Participants were able to comply with dosing and able to complete the study schedule of assessments

[2] = system: NASH patients with stage 1-3 fibrosis; assay: Phase 1b study in NASH patients: safety; type: in vivo, human; conditions: 4 weeks oral
Experimental: A total of 63 patients completed the study with 21 patients per dose group (completion of MRI-PDFF measurement). 25HC3 S sodium was orally administered daily at 50 mg, 150 mg, or 600 mg (300 mg BID). […] Subjects provided written informed consent to participate in the study • 2. Males or females subjects 18 years or older, at the time of signing informed consent • 3. BMI 20-45 kg/m^2 • 4. […] Value of Fibroscan® ≥7 kPa • OR • b. MRE ≥2.75 kPa • *Clinical diagnosis of NASH was defined in this clinical trial as the existence of one or more of the following risk factors for NASH, namely: • a. Type 2 diabetes or elevated fasting blood sugar • b. Abdominal obesity • c. Elevated lipid levels, especially elevated levels of serum triglycerides • d. Hypertension, or • e. Low levels of HDL cholesterol • 5. For serum transaminases, ALT concentration for all patients at the time of screening was >1 and <5 times upper limit of normal (ULN) of the central lab in the absence of another cause of liver disease. If a patient had lab records in the past 6 months, ALT concentrations were <20 U/L female and <30 U/L male. AST concentration for all patients at the time of screening was <5× ULN • 6. […] Platelet counts ≥120,000/mm^3 • 8. […]

[3] = Phase 1b study in NASH patients: pharmacokinetics; type: in vivo, human; conditions: for CL/F: NASH patients, mean
Experimental: as §1
The pharmacokinetics of administered 25HC3 S was determined.

[4] = Single dose safety and pharmacokinetic study in subjects with NASH and control healthy subjects; type: in vivo, human
Experimental: The present Example was a randomized, dose ranging, single dose safety and pharmacokinetic study of 25HC3S administered to subjects with NASH and control healthy subjects. […] For each cohort, 10 subjects with NASH were enrolled which were further classified into cirrhotic and non-cirrhotic. Each subject received only one dose of study treatment. The second cohort was dosed after a review of safety and tolerability data from Cohort 1.

[5] = Metabolite profiling of plasma, urine and feces after intravenous dose in rats; type: in vivo, Sprague Dawley rats; conditions: intravenous 10 mg/kg, up to 1 hour postdose
Experimental: Nine male Sprague Dawley rats (Group 1) were designated for the pharmacokinetic phase, 3 male Sprague Dawley rats (Group 2) for the excretion mass balance phase, and 7 male Sprague Dawley rats (Group 3) and 9 male Long Evans rats (Group 4) for the tissue distribution phase. All animals received a single intravenous dose of [^14C]-25HC3S at 10 mg/kg and a target radioactivity of 225 μCi/kg. Blood samples were collected from all Group 1 animals at approximately 0.083, 0.25, 0.5, 1, 2, 4, 8, 12, 24, 48, and 72 hours post-dose. Urine and feces were collected from all Group 2 animals periodically through 168 hours post-dose. […] Following blood collection, animals were euthanized by CO2 inhalation and carcasses frozen in a dry ice/hexane bath for processing by quantitative whole body autoradiography. Whole blood, plasma, urine, feces, cage rinse, and cage wash were analyzed for total radioactivity by liquid scintillation counting.
Plasma pools were made from Group 1 rats at the 0.083, 0.25, 0.5, and 1-hour collection time points.
Urine pools were prepared for Group 2 at 0 to 6 and 6 to 12 hours postdose. The largest component present was attributed to the parent 25HC3 S representing about 78% to 93% of the radioactivity. […]

NASH patients = conditions: between 50 mg and 200 mg oral dose levels; cited from earlier work
[6] = 50 mg QD, 4 weeks oral, patients with ≥10% reduction in MRI-PDFF, Day 28 vs baseline
[7] = 50 mg QD, 4 weeks oral, patients with ≥10% reduction in MRI-PDFF, Day 28 vs baseline, listed as 25HC3 S
[8] = 300 mg BID, 4 weeks oral, patients with ≥10% reduction in MRI-PDFF, Day 28 vs baseline
[9] = 300 mg BID, 4 weeks oral, patients with ≥10% reduction in MRI-PDFF, Day 28 vs baseline, listed as 25HC3 S
[10] = all on a statin except one outlier (n = 19)
[11] = all patients on a statin (n = 20)

C[C@H](CCCC(C)(C)O)[C@H]1CC[C@H]2[C@@H]3CC=C4C[C@@H](OS(=O)(=O)O)CC[C@]4(C)[C@H]3CC[C@]12C [25HC3S, 5-cholesten-3,25-diol, 3-sulfate]
Non-HDL-C, median change ([1]; 50 mg QD, 4 weeks oral, all patients, Day 28 vs baseline): −8% | APRI score, median change [1, 6]: −27%*** | AST, median change [1, 6]: −24%** | FIB-4 score, median change [1, 6]: −19%** | GGT, median change [1, 6]: −13%*** | APRI score, median change [1, 7]: −27% | AST, median change [1, 7]: −24% | FIB-4 score, median change [1, 7]: −19% | GGT, median change [1, 7]: −13% | GGT, median change ([1]; 150 mg QD, 4 weeks oral, all patients, Day 28 vs baseline): −1% | APRI score, median change [1, 8]: −36%*** | AST, median change [1, 8]: −39%*** | FIB-4 score, median change [1, 8]: −21%*** | APRI score, median change [1, 9]: −36% | AST, median change [1, 9]: −39% | FIB-4 score, median change [1, 9]: −21% | Mean Non-HDL to Baseline [1, 10]: −11% | Mean TG to Baseline [1, 10]: −10% | Median Non-HDL to Baseline [1, 10]: −10% | Median TG to Baseline [1, 10]: −9% | Mean Non-HDL to Baseline [1, 11]: −9% | Mean TG to Baseline [1, 11]: −2% | Median Non-HDL to Baseline [1, 11]: −9% | Median TG to Baseline [1, 11]: −6% | enzyme levels (e.g., ALT, AST, GGT) ([1]; high dose (300 mg BID)): improved enzyme levels | patients who showed ≥10% liver fat reduction from baseline as measured by MRI-PDFF ([1]; in each dose group (50 mg, 150 mg, 600 mg daily), after 4-week dosing): 43% | serum triglycerides, median reduction from baseline ([1]; patients with elevated baseline triglycerides (≥200 mg/dL; n=16) across all dose groups, day 28): −24% | reduction in serum triglycerides ([1]; patients with elevated baseline triglycerides (≥200 mg/dL; n=16) across all dose groups, day 28 from baseline): 24% | tolerability ([2]; all three doses (50 mg, 150 mg, 600 mg daily)): well tolerated | drug related serious adverse events ([2]; all three doses): no drug related serious adverse events observed | CL/F ([3]; 50 mg QD oral): 150.6 L/h | dose dependence of PK parameters ([3]; 50 mg, 150 mg, 600 mg daily): dose dependent | CL/F ([3]; 150 mg QD oral): 176.6 L/h | CL/F ([3]; 300 mg BID oral): 166.2 L/h | PK parameters after repeat dosing versus single dose ([3]; 4-week daily oral dosing): comparable to those after a single dose | difference between healthy and NASH subjects in pharmacokinetics (Cmax and AUC) ([4]; 50 mg and 200 mg): no clear difference | increase of AUC0-last, AUCinf and Cmax with increasing dose ([4]; 50 mg to 200 mg): less than proportional | geometric mean AUC0-12 and AUC0-last, NASH versus healthy subjects ([4]; Cohort 1 (50 mg)): similar | AUC0-inf, higher in NASH subjects than healthy ([4]; Cohort 2 (200 mg)): approximately 20% | increase of geometric mean Cmax in NASH subjects over healthy subjects ([4]; Cohorts 1 and 2): 18-24% | increase in both Cmax and AUC parameters for a four-fold increase in dose ([4]; NASH subjects, 50 mg to 200 mg): three-fold | increase in mean Cmax for a four-fold increase in dose ([4]; healthy subjects, 50 mg to 200 mg): three-fold | Mean % AUCexp ([4]; human, in vivo): low | share of the exposure (AUC) to related radioactivity in plasma [5]: approximately 54% | dose-dependent changes of biological responses (NASH patients): no dose-dependent changes of biological responses
